Results as given in patent US20250177582A1, “HIGH-AFFINITY LIGANDS OF FIBROBLAST ACTIVATION PROTEIN FOR TARGETED DELIVERY APPLICATIONS” (PHILOCHEM AG, priority 2022, published 2025).

How the values were obtained:
human FAP = human FAP (Homo sapiens (Human), UniProt Q12884); experiment: Inhibition assay of FAP (fluorogenic substrate Z-Gly-Pro-AMC); format: biochemical; settings: substrate Z-Gly-Pro-AMC 20 μM; FAP concentration lower than expected IC50 (66 pM in FIG. 3, 4); room temperature; read-out: IC50 vs human FAP
Method: (§1) Inhibition assay of FAP. The compounds were precisely weighed (range between […]) on a micro-scale (HuberLab, Sartorius QUINTIX35-1S) and dissolved in DMSO to prepare stock solutions at 1 mM. Stock solutions were further diluted with FAP activation buffer (50 mM Tris, 100 mM NaCl, 1 mM EDTA, pH=7.4) to a final DMSO concentration of 10% v/v. 10 μL of each inhibitor were serially diluted in a 384 well plate (grenier-bio one, PS, F-bottom, Black, non-binding) with 10 μL of 10% DMSO FAP buffer (1:1 dilution). FAP (human and murine) was diluted to the desired concentration with FAP activation buffer and added to the serial dilution of inhibitor (10 μL for each well). Each protein-inhibitor solution was incubated for 30 minutes at room temperature. Each measurement was performed with an enzyme concentration (FAP) lower than the expected IC50. A 60 μM solution of substrate (Z-Gly-Pro-AMC) in FAP activation buffer (<1% DMSO) was added to the plate (10 μL for each well). The reaction was incubated from 1 minute to 48 hours (see FIG. 2) at room temperature (22° C.-25° C.). The emission was read at 465 nm (excitation wavelength 360 nm) for 40 μs by Tecan Spark (s.n. 1808004082). The following controls were added to each row: positive control (no inhibitor control, 10 μL of 10% DMSO FAP buffer+10 μL of FAP solution+10 μL of substrate solution), negative control (no protein control, 10 μL of 10% DMSO FAP buffer+10 μL of FAP activation buffer+10 μL of substrate solution).
(§2) Normalization of values: The “% of FAP activity” can be calculated with the following formula:
The concentration of substrate (Z-Gly-Pro-AMC) was kept constant=20 μM. Dashed lines corresponds to sets of data with unstable fitting. […] Error bars display SEM.
(§3) FIG. 3: Inhibition assay performed with compounds 1, 2, 3, 4, 5, 6, 8 against a) 66 pM human FAP and b) 66 pM murine FAP. The concentration of substrate (Z-Gly-Pro-AMC) was kept constant=20 μM. The assay was incubated for 48 hours at 22.6° C. Error bars display SEM.
(§4) FIG. 4: a) Inhibition assay performed with compounds 8, 9 and 10 against 66 pM human FAP. The assay was incubated for 17 hours at 25° C. b) Inhibition assay performed with compound 9 against 66 pM murine FAP. The assay was incubated for 17 hours at 25° C. In both assays the concentration of substrate (Z-Gly-Pro-AMC) was kept constant=20 μM. Error bars display SEM.
FIG. 19. A: Chemical structures and corresponding IC50(hFAP) values of compounds according to the present invention. B: Chemical structures and corresponding IC50 values of compounds where the propargyl moiety at position AA^2 was replaced by different groups (Me, iPr, Bn) using both R and S stereoisomers. The sites of modification have been highlighted with arrows. Each measurement was performed with a FAP concentration lower than the expected IC50. Depending on FAP concentration, the fluorescence was measured between 10 minutes and 48 h (at room temperature) after the addition of the fluorogenic substrate (Z-Gly-Pro-AMC). IC50 values and standard errors were calculated using “[Inhibitor] vs. response—Variable slope (four parameters)” fitting (Graphpad Prism). […] By introducing the quinoline-based moiety, a single-digit nanomolar inhibitor was obtained. […] The replacement of propargylglycine with S-phenylalanine improved potency of the lead compound of additional ˜2-folds (compound 14).

Serum stability = format: in vitro ADME; settings: mouse, in vitro, time points 0 to 48 h
Method: In two separate Eppendorf, 4 μL of compound 28 and 38 (1 mM solution in DMSO) and 36 μL of serum for each time point were mixed. After each specific time point, 40 μL of mixture were freezed in liquid nitrogen and then stored at −20° C. Once all the samples were collected, samples were defrosted at 24° C. and 300 μL of ACN were added. The samples were then centrifuged at 10′000 RPM for 5 minutes. 200 μL of the supernatant were transferred to a second Eppendorf tube and dried under vacuum for 2 h. The residue was carefully resuspended in 30 μL of mQ Water:acetonitrile=9:1 mixture (with 0.1% v/v of formic acid) and analysed by LC-MS. Each time point was performed in triplicate. The percentage of intact […] was determined extracting the area of the UV peak. The obtained values were normalized on the average area at time point corresponding to 0 hours.

murine FAP = murine FAP (Mus musculus (Mouse), UniProt P97321); experiment: Inhibition assay of FAP (fluorogenic substrate Z-Gly-Pro-AMC); format: biochemical; settings: substrate Z-Gly-Pro-AMC 20 μM; 66 pM murine FAP; room temperature
Method: as §1, §2, §3, §4

Sequence of murine FAP (P97321 whole entry): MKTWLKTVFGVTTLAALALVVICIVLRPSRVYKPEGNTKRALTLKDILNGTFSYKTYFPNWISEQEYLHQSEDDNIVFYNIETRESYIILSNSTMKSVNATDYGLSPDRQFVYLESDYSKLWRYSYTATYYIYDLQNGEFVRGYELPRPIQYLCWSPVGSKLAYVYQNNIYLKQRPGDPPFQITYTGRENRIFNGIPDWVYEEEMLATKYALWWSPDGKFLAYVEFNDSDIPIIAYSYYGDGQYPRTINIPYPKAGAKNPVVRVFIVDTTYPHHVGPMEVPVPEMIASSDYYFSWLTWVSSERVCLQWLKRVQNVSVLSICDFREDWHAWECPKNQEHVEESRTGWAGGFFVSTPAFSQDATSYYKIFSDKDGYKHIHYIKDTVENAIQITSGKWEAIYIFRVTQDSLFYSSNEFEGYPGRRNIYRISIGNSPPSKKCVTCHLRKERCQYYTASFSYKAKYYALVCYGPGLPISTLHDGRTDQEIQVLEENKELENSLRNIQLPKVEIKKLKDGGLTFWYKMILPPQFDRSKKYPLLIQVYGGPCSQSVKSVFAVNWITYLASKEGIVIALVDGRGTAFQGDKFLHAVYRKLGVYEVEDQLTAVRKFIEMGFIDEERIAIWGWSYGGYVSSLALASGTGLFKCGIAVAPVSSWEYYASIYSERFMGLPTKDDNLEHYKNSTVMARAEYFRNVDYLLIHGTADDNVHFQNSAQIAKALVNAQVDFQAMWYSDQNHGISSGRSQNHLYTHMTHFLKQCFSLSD
Sequence of human FAP (Q12884 whole entry): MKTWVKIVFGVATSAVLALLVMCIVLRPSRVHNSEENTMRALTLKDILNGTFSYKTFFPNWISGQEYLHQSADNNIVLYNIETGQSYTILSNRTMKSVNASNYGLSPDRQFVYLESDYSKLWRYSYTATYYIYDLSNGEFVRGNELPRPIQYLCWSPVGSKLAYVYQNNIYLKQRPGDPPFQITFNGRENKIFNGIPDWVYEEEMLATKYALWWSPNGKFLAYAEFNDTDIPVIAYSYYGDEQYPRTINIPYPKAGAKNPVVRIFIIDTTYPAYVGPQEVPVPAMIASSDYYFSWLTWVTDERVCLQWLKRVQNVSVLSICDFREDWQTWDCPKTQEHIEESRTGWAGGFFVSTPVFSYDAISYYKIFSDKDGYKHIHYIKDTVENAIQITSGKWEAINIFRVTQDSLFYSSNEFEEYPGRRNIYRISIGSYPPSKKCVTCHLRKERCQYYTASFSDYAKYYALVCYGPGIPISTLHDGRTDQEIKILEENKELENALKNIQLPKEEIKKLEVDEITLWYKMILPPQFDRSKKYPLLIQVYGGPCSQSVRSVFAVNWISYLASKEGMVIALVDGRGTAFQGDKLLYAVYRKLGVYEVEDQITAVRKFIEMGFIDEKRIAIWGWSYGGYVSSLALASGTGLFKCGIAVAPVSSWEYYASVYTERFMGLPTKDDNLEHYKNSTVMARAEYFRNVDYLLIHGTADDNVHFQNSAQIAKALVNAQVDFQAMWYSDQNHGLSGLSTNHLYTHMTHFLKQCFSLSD

CN(C)C(=N)NCCCC(NC(=O)CCC(=O)Nc1cccc2c(C(=O)NCC(=O)N3CC(F)(F)C[C@H]3C#N)ccnc12)C(=O)N[C@@H](Cc1ccccc1)C(=O)NCCNC(=O)CCC(C(=O)O)N1CCN(CC(=O)O)CCN(CC(=O)O)CCN(CC(=O)O)CC1 (stereo in doubt) [Compound 28]
IC50 (human FAP): 0.03 nM
half-life at 100 µM (Serum stability): > 48 h
IC50 (murine FAP): 0.00479 nM
